In the NIST ThermoML archive (doi:10.1016/j.jct.2014.06.012):

Assay: molar heat capacity at constant pressure
Settings: 101.33 kPa, Vacuum adiabatic calorimetry

O=P([O-])([O-])[O-].[Cs+].[Mn+2] [cesium manganese(II) phosphate]
Settings	molar heat capacity at constant pressure [J/K/mol]
5 K, Crystal 3	1.713
5.85 K, Crystal 3	2.328
6 K, Crystal 3	2.918
6.04 K, Crystal 3	3.492
6.34 K, Crystal 3	4.989
6.38 K, Crystal 3	5.654
6.59 K, Crystal 3	21.87
6.73 K, Crystal 3	13.64
6.86 K, Crystal 3	41.07
6.9 K, Crystal 2	4.573
6.9 K, Crystal 3	4.282
7 K, Crystal 2	4.623
7.01 K, Crystal 2	15.8
7.32 K, Crystal 2	9.146
7.33 K, Crystal 2	6.236
7.8 K, Crystal 2	5.986
8 K, Crystal 2	4.972
8.09 K, Crystal 2	5.321
8.15 K, Crystal 2	5.82
8.3 K, Crystal 2	5.488
8.79 K, Crystal 2	5.238
9 K, Crystal 2	5.271
9.13 K, Crystal 2	5.488
9.54 K, Crystal 2	5.404
9.95 K, Crystal 2	5.654
10 K, Crystal 2	5.579
10.3 K, Crystal 2	5.654
11.03 K, Crystal 2	5.903
11.57 K, Crystal 2	6.319
12.47 K, Crystal 2	6.818
12.55 K, Crystal 2	6.901
13.98 K, Crystal 2	7.816
15 K, Crystal 2	8.647
15.39 K, Crystal 2	8.98
16.79 K, Crystal 2	10.24
18.22 K, Crystal 2	11.6
19.65 K, Crystal 2	12.95
20 K, Crystal 2	13.29
20.79 K, Crystal 2	14.05
21.93 K, Crystal 2	15.15
23.17 K, Crystal 2	16.48
24.41 K, Crystal 2	17.81
25 K, Crystal 2	18.42
26.16 K, Crystal 2	19.68
27.91 K, Crystal 2	21.56
29.7 K, Crystal 2	23.55
30 K, Crystal 2	23.85
30.98 K, Crystal 2	25
31.52 K, Crystal 2	25.55
32.86 K, Crystal 2	26.96
34.2 K, Crystal 2	28.45
35 K, Crystal 2	29.29
36 K, Crystal 2	30.31
37.79 K, Crystal 2	32.15
39.59 K, Crystal 2	33.82
40 K, Crystal 2	34.22
41.48 K, Crystal 2	35.49
43.18 K, Crystal 2	36.82
45 K, Crystal 2	38.16
45.05 K, Crystal 2	38.3
46.84 K, Crystal 2	39.62
48.73 K, Crystal 2	41.07
50 K, Crystal 2	42.05
50.55 K, Crystal 2	42.5
52.38 K, Crystal 2	44
54.21 K, Crystal 2	45.4
56.04 K, Crystal 2	46.79
57.87 K, Crystal 2	48.08
59.7 K, Crystal 2	49.36
60 K, Crystal 2	49.65
61.53 K, Crystal 2	50.69
63.37 K, Crystal 2	52
65.2 K, Crystal 2	53.24
67.03 K, Crystal 2	54.47
68.87 K, Crystal 2	55.66
70 K, Crystal 2	56.41
70.7 K, Crystal 2	56.85
72.42 K, Crystal 2	57.92
73.98 K, Crystal 2	58.82
75.54 K, Crystal 2	59.72
76.62 K, Crystal 2	60.35
77.7 K, Crystal 2	60.98
78.93 K, Crystal 2	61.69
79.65 K, Crystal 2	62.09
80 K, Crystal 2	62.23
80.15 K, Crystal 2	62.42
81.49 K, Crystal 2	63.07
82.19 K, Crystal 2	63.43
82.8 K, Crystal 2	63.72
84.9 K, Crystal 2	64.7
87.44 K, Crystal 2	66.08
89.1 K, Crystal 2	66.98
90 K, Crystal 2	67.48
92.52 K, Crystal 2	68.77
95.06 K, Crystal 2	70.08
97.6 K, Crystal 2	71.4
99.96 K, Crystal 2	72.65
100 K, Crystal 2	72.69
102.68 K, Crystal 2	74.12
105.79 K, Crystal 2	75.84
108.49 K, Crystal 2	77.53
110 K, Crystal 2	78.18
110.3 K, Crystal 2	78.39
111.89 K, Crystal 2	79.04
112.89 K, Crystal 2	79.62
113.69 K, Crystal 2	80.09
115.29 K, Crystal 2	81.13
116.83 K, Crystal 2	82.04
118.24 K, Crystal 2	82.7
119.21 K, Crystal 2	83.23
120 K, Crystal 2	83.73
120.39 K, Crystal 2	84.89
123.17 K, Crystal 2	91.87
124.56 K, Crystal 2	100.77
125.56 K, Crystal 2	106.26
126.99 K, Crystal 2	117.73
127 K, Crystal 1	86.55
127 K, Crystal 2	86.55
128.36 K, Crystal 1	113.16
128.73 K, Crystal 1	107.76
130 K, Crystal 1	87.8
130.58 K, Crystal 1	93.29
131.88 K, Crystal 1	89.3
132.69 K, Crystal 1	88.3
133.47 K, Crystal 1	88.38
134.22 K, Crystal 1	88.8
135.31 K, Crystal 1	89.3
136.46 K, Crystal 1	89.88
137.83 K, Crystal 1	90.46
138.61 K, Crystal 1	90.79
139.44 K, Crystal 1	91.13
140 K, Crystal 1	91.54
140.05 K, Crystal 1	91.46
141.84 K, Crystal 1	92.21
143.65 K, Crystal 1	92.87
146.58 K, Crystal 1	93.95
149.52 K, Crystal 1	95.03
150 K, Crystal 1	95.37
152.45 K, Crystal 1	96.2
155.39 K, Crystal 1	97.36
158.13 K, Crystal 1	98.36
160 K, Crystal 1	99.03
160.88 K, Crystal 1	99.36
163.62 K, Crystal 1	100.44
166.37 K, Crystal 1	101.44
168.91 K, Crystal 1	102.35
170 K, Crystal 1	102.68
171.45 K, Crystal 1	103.27
174.38 K, Crystal 1	104.26
177.32 K, Crystal 1	105.26
180 K, Crystal 1	106.18
180.25 K, Crystal 1	106.26
183.19 K, Crystal 1	107.26
186.12 K, Crystal 1	108.17
189.06 K, Crystal 1	109.17
190 K, Crystal 1	109.58
191.79 K, Crystal 1	110.08
194.53 K, Crystal 1	111
197.27 K, Crystal 1	111.91
199.58 K, Crystal 1	112.58
200 K, Crystal 1	112.74
201.38 K, Crystal 1	113.08
203.92 K, Crystal 1	113.83
206.38 K, Crystal 1	114.57
209.38 K, Crystal 1	115.65
210 K, Crystal 1	115.82
212.32 K, Crystal 1	116.57
215.39 K, Crystal 1	117.48
218.18 K, Crystal 1	118.31
219.88 K, Crystal 1	118.73
220 K, Crystal 1	118.81
221.58 K, Crystal 1	119.23
224.09 K, Crystal 1	119.98
226.59 K, Crystal 1	120.73
229.5 K, Crystal 1	121.56
230 K, Crystal 1	121.56
232.41 K, Crystal 1	122.39
235.32 K, Crystal 1	123.3
238.23 K, Crystal 1	124.22
240 K, Crystal 1	124.3
